The source made the active and inactive calls. The calls are words filed in the database; no cut-off is given here. Where a SMILES comes first, the peptide text is derived from it.
How the values were obtained:
[1] = tested on: HepaRG; test: Cytotoxicity against human HepaRG cells assessed as assessed as reduction in cell viability at 50 to 150 ug/ml incubated for 24 hrs by microplate reader analysis relative to control; assay type: toxicity, cell-based; details: at 50 to 150 µg/mL, dose 50-150 µg/ml
[2] = tested on: Cell membrane; test: Induction of membrane disruption in Pseudomonas aeruginosa ATCC BAA 1744 assessed as increase in PI positive cells at MIC incubated for 2 hrs by Propidium iodide staining based FACS cytometry analysis relative to control
[3] = tested on: Pseudomonas aeruginosa; test: Antibacterial activity against Pseudomonas aeruginosa ATCC 27883 assessed as vancomycin MIC incubated for 24 hrs by microbroth dilution assay; assay type: functional
[4] = tested on: Escherichia coli; test: Antibacterial activity against carbapenem and NDM-1 positive resistant Escherichia coli ATCC BAA 2452 assessed as reduction in microbial growth incubated for 24 hrs by microbroth dilution method; assay type: functional
[5] = tested on: Klebsiella pneumoniae; test: Synergistic antibacterial activity against Klebsiella pneumoniae ATCC BAA 1705 assessed as fractional inhibitory concentration index incubated for 24 hrs in presence of daptomycin by checkerboard assay; assay type: functional
[6] = tested on: Escherichia coli; test: Synergistic antibacterial activity against Escherichia coli ATCC 25922 assessed as fractional inhibitory concentration index incubated for 24 hrs in presence of vancomycin by checkerboard assay; assay type: functional
[7] = tested on: Klebsiella pneumoniae; test: Antibacterial activity against Klebsiella pneumoniae ATCC BAA 1705 assessed as tetracycline MIC incubated for 24 hrs by microbroth dilution assay; assay type: functional
[8] = tested on: Pseudomonas aeruginosa; test: Synergistic antibacterial activity against carbapenem resistant Pseudomonas aeruginosa ATCC BAA 1744 assessed as fractional inhibitory concentration index incubated for 24 hrs in presence of meropenem by checkerboard assay; assay type: functional
[9] = tested on: Pseudomonas aeruginosa; test: Synergistic antibacterial activity against Pseudomonas aeruginosa ATCC 27883 assessed as fractional inhibitory concentration index incubated for 24 hrs in presence of levofloxacin by checkerboard assay; assay type: functional
[10] = tested on: Pseudomonas aeruginosa; test: Synergistic antibacterial activity against Pseudomonas aeruginosa ATCC 27883 assessed as fractional inhibitory concentration index incubated for 24 hrs in presence of ciprofloxacin by checkerboard assay; assay type: functional
[11] = tested on: Staphylococcus aureus; test: Synergistic antibacterial activity against methicillin resistant Staphylococcus aureus ATCC BAA -1556 assessed as fractional inhibitory concentration index incubated for 24 hrs in presence of clindamycin by checkerboard assay; assay type: functional
[12] = tested on: Escherichia coli; test: Synergistic antibacterial activity against Escherichia coli ATCC 25922 assessed as fractional inhibitory concentration index incubated for 24 hrs in presence of levofloxacin by checkerboard assay; assay type: functional
[13] = tested on: Staphylococcus aureus; test: Antibacterial activity against Methicillin resistant Staphylococcus aureus ATCC BAA -1556 assessed as reduction in microbial growth incubated for 24 hrs by microbroth dilution method; assay type: functional
[14] = tested on: Pseudomonas aeruginosa; test: Bactericidal activity against Pseudomonas aeruginosa ATCC BAA 1744 assessed as decrease of bacterial growth at MIC measured after 12 hrs by Time kill assay; assay type: functional, organism-based
[15] = tested on: Escherichia coli; test: Synergistic antibacterial activity against Escherichia coli ATCC 25922 assessed as fractional inhibitory concentration index incubated for 24 hrs in presence of tetracycline by checkerboard assay; assay type: functional
[16] = tested on: Klebsiella pneumoniae; test: Antibacterial activity against Klebsiella pneumoniae ATCC BAA 1705 assessed as ciprofloxacin MIC incubated for 24 hrs by microbroth dilution assay; assay type: functional
[17] = tested on: Pseudomonas aeruginosa; test: Antibacterial activity against Pseudomonas aeruginosa ATCC 27883 assessed as levofloxacin MIC incubated for 24 hrs by microbroth dilution assay; assay type: functional
[18] = tested on: Klebsiella pneumoniae; test: Synergistic antibacterial activity against imipenem resistant Klebsiella pneumoniae ATCC BAA 1705 assessed as fractional inhibitory concentration index incubated for 24 hrs in presence of meropenem; assay type: functional
[19] = tested on: Staphylococcus aureus; test: Antibacterial activity against Staphylococcus aureus ATCC BAA -1556 assessed as levofloxacin MIC incubated for 24 hrs by microbroth dilution assay; assay type: functional
[20] = tested on: HepaRG; test: Cytotoxicity against human HepaRG cells assessed as assessed as reduction in cell viability at 10 ug/ml incubated for 24 hrs by microplate reader analysis; assay type: toxicity, cell-based; details: dose 10 µg/ml
[21] = tested on: Klebsiella pneumoniae; test: Synergistic antibacterial activity against Klebsiella pneumoniae ATCC BAA 1705 assessed as fractional inhibitory concentration index incubated for 24 hrs in presence of vancomycin by checkerboard assay; assay type: functional
[22] = tested on: Staphylococcus aureus; test: Bactericidal activity against methicillin resistant Staphylococcus aureus ATCC BAA 1556 assessed as reduction in bacterial viability at MIC measured after 2 hrs by Time kill assay; assay type: functional, organism-based
[23] = tested on: Klebsiella pneumoniae; test: Synergistic antibacterial activity against Klebsiella pneumoniae ATCC BAA 1705 assessed as fractional inhibitory concentration index incubated for 24 hrs in presence of tetracycline by checkerboard assay; assay type: functional
[24] = tested on: Staphylococcus aureus; test: Synergistic antibacterial activity against methicillin resistant Staphylococcus aureus ATCC BAA -1556 assessed as fractional inhibitory concentration index incubated for 24 hrs in presence of meropenem by checkerboard assay; assay type: functional
[25] = tested on: Klebsiella pneumoniae; test: Synergistic antibacterial activity against Klebsiella pneumoniae ATCC BAA 1705 assessed as fractional inhibitory concentration index incubated for 24 hrs in presence of polymyxin B by checkerboard assay; assay type: functional
[26] = Hemolytic activity in human Red blood cell incubated for 2 hrs by spectrophotometric analysis; assay type: toxicity, cell-based, Erythrocyte; details: red blood cells (erythrocytes)
[27] = tested on: Klebsiella pneumoniae; test: Synergistic antibacterial activity against Klebsiella pneumoniae ATCC BAA 1705 assessed as fractional inhibitory concentration index incubated for 24 hrs in presence of levofloxacin by checkerboard assay; assay type: functional
[28] = tested on: Pseudomonas aeruginosa; test: Bactericidal activity against Pseudomonas aeruginosa ATCC BAA 1744 assessed as reduction in bacterial growth at MIC measured after 4 hrs by Time kill assay; assay type: functional, organism-based
[29] = tested on: Staphylococcus aureus; test: Bactericidal activity against methicillin resistant Staphylococcus aureus ATCC BAA 1556 assessed as reduction in colony formation at MIC measured at 8 to 12 hrs by Time kill assay; assay type: functional, organism-based; details: time 8-12 hrs
[30] = tested on: Pseudomonas aeruginosa; test: Antibacterial activity against Pseudomonas aeruginosa ATCC 27883 assessed as tetracycline MIC incubated for 24 hrs by microbroth dilution assay; assay type: functional
[31] = tested on: Cell membrane; test: Induction of membrane disruption in Pseudomonas aeruginosa ATCC BAA 1744 assessed as increase in PI positive cells at 4 times of MIC incubated for 2 hrs by Propidium iodide staining based FACS cytometry analysis relative to control; assay type: subcellular
[32] = tested on: Pseudomonas aeruginosa; test: Antibacterial activity against Pseudomonas aeruginosa ATCC 27883 assessed as polymyxin B MIC incubated for 24 hrs by microbroth dilution assay; assay type: functional
[33] = tested on: Klebsiella pneumoniae; test: Bactericidal activity against Klebsiella pneumoniae ATCC BAA 1705 assessed as reduction in colony formation at MIC measured after 24 hrs by Time kill assay; assay type: functional, organism-based
[34] = tested on: Staphylococcus aureus; test: Antibacterial activity against Staphylococcus aureus ATCC BAA -1556 assessed as tobramycin MIC incubated for 24 hrs by microbroth dilution assay; assay type: functional
[35] = tested on: Klebsiella pneumoniae; test: Antibacterial activity against Klebsiella pneumoniae ATCC BAA 1705 assessed as kanamycin MIC incubated for 24 hrs by microbroth dilution assay; assay type: functional
[36] = tested on: Klebsiella pneumoniae; test: Synergistic antibacterial activity against Klebsiella pneumoniae ATCC BAA 1705 assessed as fractional inhibitory concentration index incubated for 24 hrs in presence of ciprofloxacin by checkerboard assay; assay type: functional
[37] = tested on: Klebsiella pneumoniae; test: Antibacterial activity against Klebsiella pneumoniae ATCC BAA 1705 assessed as clindamycin MIC incubated for 24 hrs by microbroth dilution assay; assay type: functional
[38] = tested on: Pseudomonas aeruginosa; test: Synergistic antibacterial activity against Pseudomonas aeruginosa ATCC 27883 assessed as fractional inhibitory concentration index incubated for 24 hrs in presence of tetracycline by checkerboard assay; assay type: functional
[39] = tested on: Escherichia coli; test: Antibacterial activity against Escherichia coli ATCC 25922 assessed as reduction in microbial growth incubated for 24 hrs by microbroth dilution method; assay type: functional

`N=C(N)NCCC[C@@H]1NC(=O)[C@H](CCCNC(=N)N)NC(=O)[C@H](CCCNC(=N)N)NC(=O)[C@H](CCCNC(=N)N)NC(=O)[C@H](Cc2c[nH]c3ccccc23)NC(=O)[C@H](Cc2c[nH]c3ccccc23)NC(=O)[C@H](Cc2c[nH]c3ccccc23)NC(=O)[C@H](Cc2c[nH]c3ccccc23)NC(=O)[C@H](CCCCN)NC(=O)[C@H](CCCNC(=N)N)NC1=O` (cyclo(KWWWWRRRRR)) showed an Activity [1] of 71%, an Activity [2] of 39.9% and an MIC [3] of 8 µg/mL. For the same molecule, the MIC [4] was 16 µg/mL, the “fractional inhibitory concentration index (FICI)” value [5] was 0.313 and the “fractional inhibitory concentration index (FICI)” value [6] was 0.5625. For the same molecule, the MIC [7] was 1 µg/mL, the “fractional inhibitory concentration index (FICI)” value [8] was 0.156 and the “fractional inhibitory concentration index (FICI)” value [9] was 0.375. The “fractional inhibitory concentration index (FICI)” value [10] was 0.5, the “fractional inhibitory concentration index (FICI)” value [11] was 0.498 and the “fractional inhibitory concentration index (FICI)” value [12] was 0.375. The MIC [13] was 4 µg/mL, the Activity [14] was “Active” and the “fractional inhibitory concentration index (FICI)” value [15] was 0.5. The MIC [16] was 16 µg/mL, the MIC [17] was 0.125 µg/mL and the “fractional inhibitory concentration index (FICI)” value [18] was 0.75. The MIC [19] was 1 µg/mL, the Activity [20] was “Non-Toxic” and the “fractional inhibitory concentration index (FICI)” value [21] was 0.5625. For the same molecule, the Activity [22] was “Active”, the “fractional inhibitory concentration index (FICI)” value [23] was 0.3125 and the “fractional inhibitory concentration index (FICI)” value [24] was 1. The “fractional inhibitory concentration index (FICI)” value [25] was 0.313, the HC50 at 2 h [26] was 320 µg/mL and the “fractional inhibitory concentration index (FICI)” value [27] was 0.375. The Activity [28] was “Active”, the Activity [29] was “Active” and the MIC [30] was 4 µg/mL. The Activity [31] was 66.8%, the MIC [32] was 0.125 µg/mL and the Activity [33] was “Active”. For the same molecule, the MIC [34] was 0.0625 µg/mL, the MIC [35] was 8 µg/mL and the “fractional inhibitory concentration index (FICI)” value [36] was 0.562. The MIC [37] was 2 µg/mL, the “fractional inhibitory concentration index (FICI)” value [38] was 0.375 and the MIC [39] was 16 µg/mL.
